# Active and inactive are the calls of the source. The rule behind the calls is not given here.
# Experiments:
# [1] = tested on: NCI-H226; assay: Antiproliferative activity against human NCI-H226 cells assessed as cell killing at 10 uM incubated for 3 days by CCK-8 assay; format: functional, cell-based; settings: time 3.0 day
# [2] = target: T1, Protein cereblon/Transcriptional coactivator YAP1 (Homo sapiens) (UniProt P46937+Q96SW2); assay: PROTAC activity at YAP/CRBN in human NCI-H226 cells assessed as induction of YAP degradation 10 uM incubated for 48 hrs by Western blot analysis; format: cell-based
# T1 sequence (P46937 whole entry, looked up): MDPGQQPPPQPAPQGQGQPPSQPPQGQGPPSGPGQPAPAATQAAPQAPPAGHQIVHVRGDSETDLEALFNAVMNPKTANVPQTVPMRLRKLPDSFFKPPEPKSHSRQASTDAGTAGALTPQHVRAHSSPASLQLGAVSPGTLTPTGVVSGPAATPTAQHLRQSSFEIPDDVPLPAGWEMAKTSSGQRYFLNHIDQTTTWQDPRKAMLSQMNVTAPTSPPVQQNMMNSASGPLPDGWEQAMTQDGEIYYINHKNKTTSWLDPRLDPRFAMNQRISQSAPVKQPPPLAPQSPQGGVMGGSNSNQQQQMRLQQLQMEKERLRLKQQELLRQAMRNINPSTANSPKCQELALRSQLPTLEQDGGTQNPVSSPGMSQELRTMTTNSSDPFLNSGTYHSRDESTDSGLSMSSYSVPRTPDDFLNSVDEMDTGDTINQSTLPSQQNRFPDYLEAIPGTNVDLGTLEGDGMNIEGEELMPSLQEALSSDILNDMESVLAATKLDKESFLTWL
# T1 sequence (Q96SW2 whole entry, looked up): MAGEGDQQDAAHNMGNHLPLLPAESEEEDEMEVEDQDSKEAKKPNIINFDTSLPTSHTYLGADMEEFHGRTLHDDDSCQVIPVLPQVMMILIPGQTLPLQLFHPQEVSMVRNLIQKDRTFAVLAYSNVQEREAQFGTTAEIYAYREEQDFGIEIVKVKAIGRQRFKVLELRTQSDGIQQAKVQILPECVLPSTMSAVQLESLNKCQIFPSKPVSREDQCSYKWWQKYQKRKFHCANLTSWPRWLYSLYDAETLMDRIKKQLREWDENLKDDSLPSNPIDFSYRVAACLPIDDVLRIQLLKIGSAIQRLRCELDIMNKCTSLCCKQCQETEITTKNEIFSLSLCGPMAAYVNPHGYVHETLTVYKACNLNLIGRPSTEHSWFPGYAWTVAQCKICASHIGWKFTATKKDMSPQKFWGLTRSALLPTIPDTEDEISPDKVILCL
# [3] = tested on: NCI-H226; assay: Antiproliferative activity against human NCI-H226 cells assessed as cell killing upto 3.13 uM incubated for 4 days by CCK-8 assay; format: functional, cell-based; settings: time 4.0 day
# [4] = tested on: NCI-H226; assay: Antiproliferative activity against human NCI-H226 cells assessed as cell growth inhibition incubated for 3 days by CCK-8 assay; format: functional, cell-based; settings: time 3.0 day
# [5] = target: T2, von Hippel-Lindau disease tumor suppressor/Transcriptional coactivator YAP1 (Homo sapiens, UniProt P40337+P46937); assay: PROTAC activity at YAP/VHL in human NCI-H226 cells assessed as induction of YAP degradation at 10 uM incubated for 48 hrs by Western blot analysis; format: cell-based
# Target sequence in this assay (P40337 whole entry, looked up): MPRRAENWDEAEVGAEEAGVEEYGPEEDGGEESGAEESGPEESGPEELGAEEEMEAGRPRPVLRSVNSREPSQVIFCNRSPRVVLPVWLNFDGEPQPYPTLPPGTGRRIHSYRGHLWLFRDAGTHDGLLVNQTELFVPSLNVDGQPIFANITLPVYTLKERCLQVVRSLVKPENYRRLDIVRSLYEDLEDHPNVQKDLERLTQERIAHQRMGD
# Target sequence in this assay (P46937 whole entry, looked up): as the sequence (P46937 whole entry, looked up) above
# [6] = target: T1, Protein cereblon/Transcriptional coactivator YAP1 (Homo sapiens); assay: PROTAC activity at YAP/CRBN in human NCI-H226 cells assessed as induction of YAP degradation at 10 uM incubated for 48 hrs by Western blot analysis; format: cell-based
# [7] = target: T2, von Hippel-Lindau disease tumor suppressor/Transcriptional coactivator YAP1; assay: PROTAC activity at YAP/VHL in human NCI-H226 cells assessed as induction of YAP degradation incubated for 48 hrs by Western blot analysis; format: cell-based
# Target sequence in this assay (P40337 whole entry): as the sequence (P40337 whole entry, looked up) above
# Target sequence in this assay (P46937 whole entry): as the sequence (P46937 whole entry, looked up) above
# [8] = target: T2, von Hippel-Lindau disease tumor suppressor/Transcriptional coactivator YAP1; assay: PROTAC activity at YAP/VHL in human NCI-H226 cells assessed as reduction in CTGF expression incubated for 48 hrs by Western blot analysis; format: cell-based; settings: dose 2.5-20 µM
# Target sequence in this assay (P40337 whole entry, looked up): as the sequence (P40337 whole entry, looked up) above
# Target sequence in this assay (P46937 whole entry, looked up): as the sequence (P46937 whole entry, looked up) above
# [9] = target: T2, von Hippel-Lindau disease tumor suppressor/Transcriptional coactivator YAP1; assay: PROTAC activity at YAP/VHL in human NCI-H226 cells assessed as effect on YAP level at 10 uM incubated for 48 hrs by Western blot analysis; format: cell-based
# Target sequence in this assay (P40337 whole entry, looked up): as the sequence (P40337 whole entry, looked up) above
# Target sequence in this assay (P46937 whole entry, looked up): as the sequence (P46937 whole entry, looked up) above
# [10] = tested on: NCI-H226; assay: Antiproliferative activity against human NCI-H226 cells assessed as cell killing at 12.5 uM incubated for 3 days by CCK-8 assay; format: functional, cell-based; settings: time 3.0 day
# [11] = target: T2, von Hippel-Lindau disease tumor suppressor/Transcriptional coactivator YAP1; assay: PROTAC activity at YAP/VHL in human NCI-H226 cells assessed as induction of YAP degradation 10 uM incubated for 48 hrs by Western blot analysis; format: cell-based
# Target sequence in this assay (P40337 whole entry, looked up): as the sequence (P40337 whole entry, looked up) above
# Target sequence in this assay (P46937 whole entry, looked up): as the sequence (P46937 whole entry, looked up) above
# [12] = target: T1, Protein cereblon/Transcriptional coactivator YAP1 (Homo sapiens); assay: PROTAC activity at YAP/CRBN in human NCI-H226 cells assessed as effect on YAP level at 10 uM incubated for 48 hrs by Western blot analysis; format: cell-based
# [13] = target: T2, von Hippel-Lindau disease tumor suppressor/Transcriptional coactivator YAP1; assay: PROTAC activity at YAP/VHL in human NCI-H226 cells assessed as reduction in YAP level at 10 uM incubated for 48 hrs by Western blot analysis; format: cell-based
# Target sequence in this assay (P40337 whole entry, looked up): as the sequence (P40337 whole entry, looked up) above
# Target sequence in this assay (P46937 whole entry, looked up): as the sequence (P46937 whole entry, looked up) above
# [14] = target: Transcriptional enhancer factor TEF-1 (Homo sapiens) (UniProt P28347); assay: Inhibition of TEAD transcriptional activity in human HEK293T cells incubated for 24 hrs by luciferase reporter assay; format: cell-based
# Chain of Transcriptional enhancer factor TEF-1 (Homo sapiens) (P28347 whole entry): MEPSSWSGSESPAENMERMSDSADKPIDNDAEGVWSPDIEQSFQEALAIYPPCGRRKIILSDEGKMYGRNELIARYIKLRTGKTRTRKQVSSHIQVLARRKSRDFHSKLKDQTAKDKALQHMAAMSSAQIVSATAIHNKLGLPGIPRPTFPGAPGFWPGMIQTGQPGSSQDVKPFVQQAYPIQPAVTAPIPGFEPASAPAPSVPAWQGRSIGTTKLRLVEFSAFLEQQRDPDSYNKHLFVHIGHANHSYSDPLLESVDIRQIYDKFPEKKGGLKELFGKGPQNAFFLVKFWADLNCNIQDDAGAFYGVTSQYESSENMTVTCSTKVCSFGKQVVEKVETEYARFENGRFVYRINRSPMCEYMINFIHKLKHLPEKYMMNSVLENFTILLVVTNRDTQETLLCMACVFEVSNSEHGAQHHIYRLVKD
# [15] = target: Transcriptional coactivator YAP1 (Homo sapiens) (UniProt P46937); assay: Induction of YAP degradation in human NCI-H290 cells at 5 uM relative to control; format: cell-based
# Chain of Transcriptional coactivator YAP1 (Homo sapiens) (P46937 whole entry): as the sequence (P46937 whole entry, looked up) above
# [16] = tested on: Huh-7; assay: Antitumor activity against human Huh-7 cells xenografted in immunodeficient male NSG mouse assessed as tumor growth inhibition at 100 mg/kg, po administered every 3 days for 24 days; format: functional; settings: Huh-7, 576 h, time 24 day, read-out: TGI
# [17] = tested on: NCI-H226; assay: Antiproliferative activity against NF2 deficient- human NCI-H226 cells assessed as maximum cell growth inhibition incubated for 4 days by CCK-8 assay relative to control; format: functional; settings: time 4 day
# [18] = tested on: NCI-H226; assay: Antiproliferative activity against NF2 deficient- human NCI-H226 cells assessed as cell growth inhibition incubated for 4 days by CCK-8 assay; format: functional, cell-based; settings: NCI-H226, 96 h
# [19] = tested on: Huh-7; assay: Antiproliferative activity against human Huh-7 cells overexpressing YAP assessed as cell growth inhibition incubated for 4 days by CCK-8 assay; format: functional, cell-based; settings: Huh-7, 96 h
structure (smiles),measurement,setting,value
COc1cc(-c2cc(-c3ccccc3)nc3c2CC(=O)Nc2ccccc2-3)ccc1OCC(=O)NCCOCCNc1cccc2c1C(=O)N(C1CCC(=O)NC1=O)C2=O (configuration not stated),Activity,[1],inactive
COc1ccc(-c2cc(-c3ccc(OCC(=O)NCCOCCOCCOCCNc4cccc5c4C(=O)N(C4CCC(=O)NC4=O)C5=O)cc3)nc3c2CC(=O)Nc2ccccc2-3)cc1OC (configuration not stated),Activity,[2],inactive
same,Activity,[3],inactive
COc1ccc(-c2cc(-c3ccccc3)nc3c2CC(=O)Nc2ccccc2-3)cc1OCCOCCC(=O)N[C@H](C(=O)N1C[C@H](O)C[C@H]1C(=O)N[C@@H](C)c1ccc(-c2scnc2C)cc1)C(C)(C)C,Activity,[1],inactive
same,Activity,[4],Active
same,Activity,[5],inactive
COc1ccc(-c2cc(-c3ccccc3)nc3c2CC(=O)Nc2ccccc2-3)cc1OCC(=O)NCCOCCNc1cccc2c1C(=O)N(C1CCC(=O)NC1=O)C2=O (configuration not stated),Activity,[1],inactive
same,Activity,[4],Active
same,Activity,[6],inactive
COc1cc(-c2cc(-c3ccccc3)nc3c2CC(=O)Nc2ccccc2-3)ccc1OCCOCC(=O)N[C@H](C(=O)N1C[C@H](O)C[C@H]1C(=O)N[C@@H](C)c1ccc(-c2scnc2C)cc1)C(C)(C)C,DC50,[7],14.9 µM
same,Activity,[8],Dose-Dependent Effect
same,Activity,[1],inactive
COc1cc(-c2cc(-c3ccccc3)nc3c2CC(=O)Nc2ccccc2-3)ccc1OCCCCCCCCCC(=O)N[C@H](C(=O)N1C[C@H](O)C[C@H]1C(=O)N[C@@H](C)c1ccc(-c2scnc2C)cc1)C(C)(C)C,Activity,[9],inactive
same,Activity,[10],inactive
COc1ccc(-c2cc(-c3ccccc3)nc3c2CC(=O)Nc2ccccc2-3)cc1OCCOCCOCCC(=O)N[C@H](C(=O)N1C[C@H](O)C[C@H]1C(=O)N[C@@H](C)c1ccc(-c2scnc2C)cc1)C(C)(C)C,Activity,[1],inactive
same,Activity,[4],Active
same,Activity,[5],inactive
COc1ccc(-c2cc(-c3ccc(OCC(=O)NCCOCCNc4cccc5c4C(=O)N(C4CCC(=O)NC4=O)C5=O)cc3)nc3c2CC(=O)Nc2ccccc2-3)cc1OC (configuration not stated),Activity,[2],inactive
same,Activity,[3],inactive
COc1ccc(-c2cc(-c3ccc(OCCOCCOCCC(=O)N[C@H](C(=O)N4C[C@H](O)C[C@H]4C(=O)N[C@@H](C)c4ccc(-c5scnc5C)cc4)C(C)(C)C)cc3)nc3c2CC(=O)Nc2ccccc2-3)cc1OC,Activity,[11],inactive
same,Activity,[3],inactive
COc1cc(-c2cc(-c3ccccc3)nc3c2CC(=O)Nc2ccccc2-3)ccc1OCC(=O)NCCOCCOCCOCCNc1cccc2c1C(=O)N(C1CCC(=O)NC1=O)C2=O (configuration not stated),Activity,[12],inactive
same,Activity,[10],inactive
COc1cc(-c2cc(-c3ccccc3)nc3c2CC(=O)Nc2ccccc2-3)ccc1OCCOCCOCCOCCC(=O)N[C@H](C(=O)N1C[C@H](O)C[C@H]1C(=O)N[C@@H](C)c1ccc(-c2scnc2C)cc1)C(C)(C)C,Activity,[13],Active
same,Activity,[1],inactive
COc1cc(-c2cc(-c3ccccc3)nc3c2CC(=O)Nc2ccccc2-3)ccc1O,TEAD transcriptional inhibition (active/inactive call),[14],Active
COc1cc(-c2cc(-c3ccccc3)nc3c2CC(=O)Nc2ccccc2-3)ccc1OCCOCCC(=O)N[C@H](C(=O)N1C[C@H](O)C[C@H]1C(=O)N[C@@H](C)c1ccc(-c2scnc2C)cc1)C(C)(C)C,Activity,[1],inactive
COc1ccc(-c2cc(-c3ccccc3)nc3c2CC(=O)Nc2ccccc2-3)cc1OCC(=O)NCCOCCOCCNc1cccc2c1C(=O)N(C1CCC(=O)NC1=O)C2=O (configuration not stated),Activity,[1],inactive
same,Activity,[4],Active
same,Activity,[6],inactive
COc1ccc(-c2cc(-c3ccc(OCCCCCCCC(=O)N[C@H](C(=O)N4C[C@H](O)C[C@H]4C(=O)N[C@@H](C)c4ccc(-c5scnc5C)cc4)C(C)(C)C)cc3)nc3c2CC(=O)Nc2ccccc2-3)cc1OC,Activity,[11],inactive
same,Activity,[3],inactive
COc1ccc(-c2cc(-c3ccccc3)nc3c2CC(=O)Nc2ccccc2-3)cc1OCCOCC(=O)N[C@H](C(=O)N1C[C@H](O)C[C@H]1C(=O)N[C@@H](C)c1ccc(-c2scnc2C)cc1)C(C)(C)C,Activity,[1],inactive
same,Activity,[4],Active
same,Activity,[5],inactive
CN[C@@H](C)C(=O)N[C@H](C(=O)N1CCC[C@H]1c1nc(C(=O)c2cccc(OCCOCCNC(=O)[C@]34CC[C@@H](C(C)=O)[C@@H]3[C@H]3CC[C@@H]5[C@@]6(C)CC[C@H](O)C(C)(C)[C@@H]6CC[C@@]5(C)[C@]3(C)CC4)c2)cs1)C1CCCCC1,Activity,[15],< 50%
COc1ccc(-c2cc(-c3ccccc3)nc3c2CC(=O)Nc2ccccc2-3)cc1OCCOC(C)=O,TEAD transcriptional inhibition (active/inactive call),[14],Active
COc1cc(-c2cc(-c3ccccc3)nc3c2CC(=O)Nc2ccccc2-3)ccc1OCCOC(C)=O,TEAD transcriptional inhibition (active/inactive call),[14],Active
COc1ccc(-c2cc(-c3ccc(OCC(=O)NCCOCCOCCNc4cccc5c4C(=O)N(C4CCC(=O)NC4=O)C5=O)cc3)nc3c2CC(=O)Nc2ccccc2-3)cc1OC (configuration not stated),Activity,[2],inactive
same,Activity,[3],inactive
COc1ccc(-c2cc(-c3ccc(OCCCCCCCCCC(=O)N[C@H](C(=O)N4C[C@H](O)C[C@H]4C(=O)N[C@@H](C)c4ccc(-c5scnc5C)cc4)C(C)(C)C)cc3)nc3c2CC(=O)Nc2ccccc2-3)cc1OC,Activity,[11],inactive
same,Activity,[3],inactive
COc1cc(-c2cc(-c3ccccc3)nc3c2CC(=O)Nc2ccccc2-3)ccc1OCCCCCC(=O)N[C@H](C(=O)N1C[C@H](O)C[C@H]1C(=O)N[C@@H](C)c1ccc(-c2scnc2C)cc1)C(C)(C)C,Activity,[1],inactive
COc1ccc(-c2cc(-c3ccccc3)nc3c2CC(=O)Nc2ccccc2-3)cc1O,TEAD transcriptional inhibition (active/inactive call),[14],Active
CNC(=O)c1cc(Oc2ccc(NC(=O)Nc3ccc(Cl)c(C(F)(F)F)c3)cc2)ccn1 [SORAFENIB],inhibition in vivo at 100 mg/kg,[16],76%
COc1ccc(-c2cc(-c3ccccc3)nc3c2CC(=O)Nc2ccccc2-3)cc1OCc1ccccc1,TEAD transcriptional inhibition (active/inactive call),[14],Active
CC(=O)c1ccc(OCc2ccccc2)cc1,TEAD transcriptional inhibition (active/inactive call),[14],Active
COc1cc(-c2cc(-c3ccccc3)nc3c2CC(=O)Nc2ccccc2-3)ccc1OCC(=O)NCCOCCOCCNc1cccc2c1C(=O)N(C1CCC(=O)NC1=O)C2=O (configuration not stated),Activity,[1],inactive
COc1ccc(-c2cc(-c3ccccc3)nc3c2CC(=O)Nc2ccccc2-3)cc1OCC(=O)NCCOCCOCCOCCNc1cccc2c1C(=O)N(C1CCC(=O)NC1=O)C2=O (configuration not stated),Activity,[1],inactive
same,Activity,[4],Active
same,Activity,[6],inactive
COc1cc(-c2cc(-c3ccccc3)nc3c2CC(=O)Nc2ccccc2-3)ccc1OCCCCCCCC(=O)N[C@H](C(=O)N1C[C@H](O)C[C@H]1C(=O)N[C@@H](C)c1ccc(-c2scnc2C)cc1)C(C)(C)C,Activity,[1],inactive
COc1ccc(-c2cc(-c3ccccc3)nc3c2CC(=O)Nc2ccccc2-3)cc1OC,inhibition (INH),[17],95%
same,IC50,[18],3.9 µM
same,IC50,[19],69 µM
COc1ccc(-c2cc(-c3ccc(OCCCCCC(=O)N[C@H](C(=O)N4C[C@H](O)C[C@H]4C(=O)N[C@@H](C)c4ccc(-c5scnc5C)cc4)C(C)(C)C)cc3)nc3c2CC(=O)Nc2ccccc2-3)cc1OC,Activity,[11],inactive
same,Activity,[3],inactive

# From ChEMBL document CHEMBL5584348, “Exploring Degradation of Intrinsically Disordered Protein Yes-Associated Protein Induced by Proteolysis TArgeting Chimeras” (J Med Chem, 2024)
